Series [1] in a line: Adverse reactions in treated tumor-bearing mice. It is filed as in vivo. The conditions noted are these: tumor-bearing mice irresponsive to ICIs. The method, then: (§1) During administration, a body weight of mice was monitored every 3 days, and a tumor volume was measured.
Series [2] has as its system Lewis lung carcinoma (LLC). Put plainly: Therapeutic effect in PD-1 mAb-irresponsive (NR-FMT) LLC-bearing mice: tumor volume and weight. It is filed as in vivo, C57BL/6J mice. Conditions: compared with NR-Control group, HQG intragastric daily, PD-1 mAb i.p. once every 3 days. As to the method:
Pseudo-germ-free mouse modeling: Mice were treated with broad-spectrum antibiotics to construct pseudo-germ-free mouse models. 36 female C57BL/6J mice at 5 weeks (experimental animal license No.: SCXK (Beijing) 2019-0009) were purchased from Beijing Vital River Laboratory Animal Technology Co., Ltd. The mice were raised under the following conditions: cleanliness: SPF level; room temperature: 20° C. to 22° C.; humidity: 60±5%; 12 h light/12 h dark alternating cycle; and free eating and drinking. All animal protocols in this experiment were approved by the Beijing MaideiKangna Animal Ethics Committee, and animal experimental operations were conducted under the guidance of the Laboratory Animal Protection Association.
After the mice were raised adaptively for one week, the mice were intragastrically administered daily with 100 μL of ABT for consecutive 3 days. […]
Subcutaneous inoculation of LLC cells: An LLC cell suspension with a concentration of about 1×10^7 cells/mL was inoculated at a right axilla of a fecal bacteria-transplanted mouse with an inoculum size of 0.2 mL/mouse. The longest and shortest diameters of a tumor were measured by a vernier caliper, and a volume of the tumor=½ longest diameter×shortest diameter^2. […]
as §1

The subject of the next series is Foxp3^+Treg cells. Put plainly: Detection of Foxp3+Treg cells in a tumor tissue by FCM (NR-FMT LLC-bearing mice). It is filed as in vivo, C57BL/6J mice. Conditions: flow cytometry of tumor tissue. On the technique in general: In flow cytometry, cells or beads pass a laser one at a time.

The values that follow come from patent US12029747B2, “Use of baicalin in preparation of drug for treating tumor irresponsive to immune checkpoint inhibitors (ICIs)/undergoing hyperprogression” (BEIJING FRIENDSHIP HOSPITAL, CAPITAL MEDICAL UNIVERSITY, priority 2022, dated 2024).

Entries after “also recorded” stand apart in the source; their conditions may differ.

As to `O=C(O)[C@H]1O[C@@H](Oc2cc3oc(-c4ccccc4)cc(=O)c3c(O)c2O)[C@H](O)[C@@H](O)[C@@H]1O` [HQG, baicalin], the adverse reactions result in series [1] is on record as “no significant adverse reactions”. In series [2], the tumor volume result is reported as “no significant difference; also recorded: not reduced” and the tumor weight result is on record as “no significant difference; also recorded: not reduced”. Also, the “number of Foxp3+Treg cells in a tumor” value in the series on Foxp3^+Treg cells was “not reduced”.
